Tests used:
SW-620 (Colon cancer) = test: NCI-60 screen (SRB, 48 h); conditions: Homo sapiens; for GI50: SW-620; for IC (TGI): SW-620, 48 h, read-out: TGI; for CC50: SW-620, read-out: LC50
KM12 (Colon cancer) = test: NCI-60 screen (SRB, 48 h); conditions: Homo sapiens; for GI50: KM12; for IC (TGI): KM12, 48 h, read-out: TGI; for CC50: KM12, read-out: LC50
A498 (Renal cancer) = test: NCI-60 screen (SRB, 48 h); conditions: Homo sapiens; for GI50: A498; for IC (TGI): A498, 48 h, read-out: TGI; for CC50: A498, read-out: LC50
MCF-7 (breast carcinoma) = test: SRB cytotoxicity assay, 72 h; assay type: cell-based, human; conditions: Homo sapiens, MCF7; MCF-7, 72 h, cut-off 30 µM; read-out: EC50
Procedure: (§1) The cytotoxicity of compounds 1–20 was evaluated by means of a colorimetric sulforhodamine B (SRB) assay. For all compounds, the EC50 values were determined for the human tumor cell lines A375 (malignant melanoma), HT29 (colorectal carcinoma), MCF-7 (breast carcinoma), A2780 (ovarian carcinoma), FaDu (hypopharyngeal carcinoma), and NIH 3T3 (non-malignant mouse fibroblasts).
(§2) In short, exponentially growing cells were seeded into 96-well plates on day 0 at the appropriate cell densities to prevent confluence of the cells during the period of experiment. After 24 h, the cells were treated with serial dilutions of the compounds (0–30 µM) for 72 h. The final concentration of DMSO never exceeded 0.5%, which was non-toxic to the cells. After a 72 h treatment, the supernatant medium from the 96-well plates was discarded, and the cells were fixed with 10% TCA. For a thorough fixation, the plates were allowed to rest at 4 °C. After fixation, the cells were washed in a strip washer. The washing was done four times with water using alternate dispensing and aspiration procedures. The plates were then dyed with 100 µL of 0.4% SRB for about 20 min. After dying, the plates were washed with 1% acetic acid to remove the excess of the dye and allowed to air-dry overnight. Tris base solution (200 µL, 10 mM) was added to each well and absorbance was measured at λ = 570 nm (using a 96 well plate reader, Tecan Spectra, Crailsheim, Germany). The percentages of surviving cells relative to untreated controls were determined.

[1] = tested on: A375 (malignant melanoma); test: SRB cytotoxicity assay, 72 h; assay type: cell-based, human; conditions: Homo sapiens, A-375, 72 h, A375, 72 h, cut-off 30 µM; read-out: EC50
Procedure: as §1, §2

[2] = tested on: FaDu (hypopharyngeal carcinoma); test: SRB cytotoxicity assay, 72 h; assay type: cell-based, human; conditions: Homo sapiens, cut-off 30 µM, read-out: EC50
Procedure: as §1, §2

[3] = tested on: A2780 (ovarian carcinoma); test: SRB cytotoxicity assay, 72 h; assay type: cell-based, human; conditions: Homo sapiens; A2780, 72 h, cut-off 30 µM; read-out: EC50
Procedure: as §1, §2

[4] = tested on: HT29 (colorectal carcinoma); test: SRB cytotoxicity assay, 72 h; assay type: cell-based, human; conditions: Homo sapiens, HT-29; HT29, 72 h, cut-off 30 µM; read-out: EC50
Procedure: as §1, §2

SNB-19 (CNS cancer) = test: NCI-60 screen (SRB, 48 h); conditions: Homo sapiens; for GI50: SNB-19; for IC (TGI): SNB-19, 48 h, read-out: TGI; for CC50: SNB-19, read-out: LC50
CNS cancer subpanel = test: NCI-60 screen, subpanel; conditions: Homo sapiens; for IC (TGI): 48 h, read-out: TGI MG_MID; for GI50: read-out: GI50 MG_MID; for CC50: read-out: LC50 MG_MID
[5] = tested on: NCI-H522 (NSC lung cancer); test: NCI-60 screen (SRB, 48 h); conditions: Homo sapiens; for GI50: NCI-H522; for IC (TGI): NCI-H522, 48 h, read-out: TGI; for CC50: NCI-H522, read-out: LC50
Renal Cancer subpanel = test: NCI-60 screen, subpanel; conditions: Homo sapiens; for IC (TGI): 48 h, read-out: TGI MG_MID; for GI50: read-out: GI50 MG_MID; for CC50: read-out: LC50 MG_MID
SK-MEL-5 (Melanoma) = test: NCI-60 screen (SRB, 48 h); conditions: Homo sapiens; for GI50: SK-MEL-5; for IC (TGI): SK-MEL-5, 48 h, read-out: TGI; for CC50: SK-MEL-5, read-out: LC50
HCC-2998 (Colon cancer) = test: NCI-60 screen (SRB, 48 h); conditions: Homo sapiens; for GI50: HCC 2998; for IC (TGI): HCC 2998, 48 h, read-out: TGI; for CC50: HCC 2998, read-out: LC50
OVCAR-4 (Ovarian cancer) = test: NCI-60 screen (SRB, 48 h); assay type: cell-based; conditions: Homo sapiens; for IC (TGI): OVCAR-4, 48 h; for GI50: read-out: GI50
SF-295 (CNS cancer) = test: NCI-60 screen (SRB, 48 h); conditions: Homo sapiens; for GI50: SF-295; for IC (TGI): SF-295, 48 h, read-out: TGI; for CC50: SF-295, read-out: LC50
MALME-3M (Melanoma) = test: NCI-60 screen (SRB, 48 h); conditions: Homo sapiens; for IC (TGI): 48 h, read-out: TGI; for CC50: read-out: LC50
[6] = tested on: NCI-H226 (NSC lung cancer); test: NCI-60 screen (SRB, 48 h); conditions: for GI50: NCI-H226; for IC (TGI): NCI-H226, 48 h, read-out: TGI
TK-10 (Renal cancer) = test: NCI-60 screen (SRB, 48 h); conditions: Homo sapiens; for GI50: TK-10; for IC (TGI): TK-10, 48 h, read-out: TGI; for CC50: TK-10, read-out: LC50
EKVX (NSC lung cancer) = test: NCI-60 screen (SRB, 48 h); conditions: Homo sapiens; for IC (TGI): 48 h, read-out: TGI; for CC50: read-out: LC50
[7] = tested on: NCI-H460 (NSC lung cancer); test: NCI-60 screen (SRB, 48 h); conditions: for GI50 / IC (TGI) / CC50: Homo sapiens; for GI50: NCI-H460; for IC (TGI): NCI-H460, 48 h, read-out: TGI; for CC50: NCI-H460, read-out: LC50
MCF7 (Breast cancer) = test: NCI-60 screen (SRB, 48 h); conditions: Homo sapiens; for GI50: MCF7; for IC (TGI): MCF7, 48 h, read-out: TGI; for CC50: MCF7, read-out: LC50
T-47D (Breast cancer) = test: NCI-60 screen (SRB, 48 h); conditions: Homo sapiens, T47D; for IC (TGI): 48 h, read-out: TGI; for CC50: read-out: LC50
ACHN (Renal cancer) = test: NCI-60 screen (SRB, 48 h); conditions: for GI50 / IC (TGI) / CC50: Homo sapiens; for IC (TGI): 48 h, read-out: TGI; for CC50: read-out: LC50

## C[C@H]1[C@H](C)CC[C@]2(CO)CC[C@]3(C)C(=CC[C@@H]4[C@@]5(C)CCCNC(C)(C)[C@@H]5CC[C@]43C)[C@H]12 [Compound 4, azepanouvaol]
SW-620 (Colon cancer)
  GI50: 1.79 µM
  IC (TGI): 3.54 µM
  CC50: 7.03 µM
KM12 (Colon cancer)
  GI50: 1.84 µM
  IC (TGI): 3.51 µM
  CC50: 6.68 µM
A498 (Renal cancer)
  GI50: 1.63 µM
  IC (TGI): 3.29 µM
  CC50: 6.63 µM
MCF-7 (breast carcinoma)
  EC50: 2.3 ± 0.2 µM
[1]
  EC50: 2.4 ± 0.2 µM
[2]
  EC50: 1.69 ± 0.4 µM
[3]
  EC50: 2.63 ± 0.1 µM
[4]
  EC50: 1.71 ± 0.3 µM
SNB-19 (CNS cancer)
  GI50: 1.86 µM
  IC (TGI): 3.43 µM
  CC50: 6.31 µM
CNS cancer subpanel
  IC (TGI): 3.2 µM
  GI50: 1.69 µM
  CC50: 6.06 µM
[5]
  GI50: 1.71 µM
  IC (TGI): 3.32 µM
  CC50: 6.43 µM
Renal Cancer subpanel
  IC (TGI): 3.2 µM
  GI50: 1.47 µM
  CC50: 6.11 µM
SK-MEL-5 (Melanoma)
  GI50: 1.7 µM
  IC (TGI): 3.09 µM
  CC50: 5.62 µM
HCC-2998 (Colon cancer)
  GI50: 1.75 µM
  IC (TGI): 3.46 µM
  CC50: 6.85 µM
OVCAR-4 (Ovarian cancer)
  IC (TGI): 3.79 µM
OVCAR-4 (Ovarian cancer); OVCAR-4
  GI50: 1.72 µM
SF-295 (CNS cancer)
  GI50: 1.64 µM
  IC (TGI): 3.06 µM
  CC50: 5.72 µM
MALME-3M (Melanoma)
  GI50: 1.68 µM
  IC (TGI): 3.44 µM
  CC50: 7.08 µM
[6]; Homo sapiens
  GI50: 2.07 µM
  IC (TGI): 4.25 µM
[6]; NCI-H226, 1 dose 10 µM
  Growth % of the Most Sensitive Cell Lines: −99.04%
TK-10 (Renal cancer)
  GI50: 1.84 µM
  IC (TGI): 3.32 µM
  CC50: 5.97 µM
EKVX (NSC lung cancer)
  GI50: 1.66 µM
  IC (TGI): 3.29 µM
  CC50: 6.53 µM
[7]
  GI50: 1.78 µM
  IC (TGI): 3.35 µM
  CC50: 6.3 µM
[7]; NCI-H460, 1 dose 10 µM
  Growth % of the Most Sensitive Cell Lines: −83.30%
MCF7 (Breast cancer)
  GI50: 1.58 µM
  IC (TGI): 3.39 µM
  CC50: 7.28 µM
T-47D (Breast cancer)
  GI50: 1.68 µM
  IC (TGI): 4.03 µM
  CC50: 9.66 µM
ACHN (Renal cancer)
  GI50: 1.69 µM
  IC (TGI): 3.06 µM
  CC50: 5.54 µM

## CC1(C)NCCC[C@]2(C)[C@H]3C=CC4=C5C[C@@](C)(CO)CC[C@]5(C)CC[C@@]4(C)[C@]3(C)CC[C@@H]12 [Compound 6, azepano-glycyrrhetol-diene]
SW-620 (Colon cancer)
  GI50: 5.76 µM
  IC (TGI): 18.8 µM
  CC50: 47 µM
KM12 (Colon cancer)
  GI50: 6.09 µM
  IC (TGI): 20.3 µM
  CC50: 55.1 µM
A498 (Renal cancer)
  GI50: 11.4 µM
  IC (TGI): 24.5 µM
  CC50: 52.7 µM
MCF-7 (breast carcinoma)
  EC50: 7.1 ± 0.5 µM
[1]
  EC50: 6.65 ± 0.3 µM
[2]
  EC50: 4.44 ± 0.6 µM
[3]
  EC50: 3.93 ± 0.5 µM
[4]
  EC50: 4.84 ± 0.5 µM
SNB-19 (CNS cancer)
  GI50: 11.6 µM
  IC (TGI): 25.3 µM
  CC50: 55.2 µM
CNS cancer subpanel
  IC (TGI): 13.5 µM
  GI50: 4.53 µM
  CC50: 39.7 µM
[5]
  GI50: 2.38 µM
  IC (TGI): 7.31 µM
  CC50: 31.7 µM
Renal Cancer subpanel
  IC (TGI): 11.9 µM
  GI50: 4.01 µM
  CC50: 35.8 µM
SK-MEL-5 (Melanoma)
  GI50: 2.14 µM
  IC (TGI): 4.94 µM
  CC50: 14 µM
HCC-2998 (Colon cancer)
  GI50: 10.1 µM
  IC (TGI): 23 µM
  CC50: 52.3 µM
OVCAR-4 (Ovarian cancer)
  IC (TGI): 20.8 µM
OVCAR-4 (Ovarian cancer); OVCAR-4
  GI50: 5.63 µM
OVCAR-4 (Ovarian cancer); OVCAR-4, read-out: LC50 (the source's name)
  CC50: 63.1 µM
SF-295 (CNS cancer)
  GI50: 2 µM
  IC (TGI): 4.04 µM
  CC50: 8.15 µM
MALME-3M (Melanoma)
  GI50: 2.64 µM
  IC (TGI): 8.01 µM
  CC50: 32.5 µM
[6]; Homo sapiens
  GI50: 4 µM
  IC (TGI): 16.9 µM
[6]; Homo sapiens, NCI-H226, read-out: LC50
  CC50: 82.2 µM
TK-10 (Renal cancer)
  GI50: 2.66 µM
  IC (TGI): 7.15 µM
  CC50: 27.3 µM
EKVX (NSC lung cancer)
  GI50: 2.77 µM
  IC (TGI): 8.27 µM
  CC50: 38.4 µM
[7]
  GI50: 4.17 µM
  IC (TGI): 15.2 µM
  CC50: 46.2 µM
MCF7 (Breast cancer)
  GI50: 3.14 µM
  IC (TGI): 14.5 µM
  CC50: 46.7 µM
T-47D (Breast cancer)
  GI50: 5.38 µM
  IC (TGI): 20.9 µM
  CC50: 59.5 µM
ACHN (Renal cancer); 1 dose 10 µM
  Growth % of the Most Sensitive Cell Lines: −95.35%
ACHN (Renal cancer)
  GI50: 2.93 µM
  IC (TGI): 9.56 µM
  CC50: 33 µM
